In brackets after ≈: the same amount, converted by molar mass. Where a SMILES comes first, the peptide text is derived from it. [ ]: non-standard residue; d: D form. The star is where a group is joined. NODAGA = O=C(O)CN1CCN(CC(=O)O)CCN(C(CCC(=O)*)C(=O)O)CC1; NMeA = CN[CH](C)C(=O)O
Columns and labels:
[1] = Inhibition of NDM-1 (unknown origin); set-up: species or system Homo sapiens
[2] = Inhibition of NDM-1 (unknown origin) by using nitrocefin as substrate preincubated for 10 min followed by nitrocefin addition incubated after 30 min; set-up: species or system Homo sapiens
[3] = Oral bioavailability in BALB/c mouse relative to control; format: ADME, organism-based; settings: in vivo
[4] = tested on: Escherichia coli; assay: Synergistic antibacterial activity against Escherichia coli BL21 (DE3) expressing NDM-1 incubated for 12 hrs in the presence of cefuroxime sodium by two-fold checkerboard microdilution method; format: functional
[5] = Inhibition of NDM-1 (unknown origin) using nitrocefin as substrate; set-up: species or system Homo sapiens
[6] = Inhibition of NDM-1 (unknown origin) expressed in Escherichia coli; set-up: species or system Homo sapiens
[7] = tested on: Escherichia coli; assay: Antibacterial activity against Escherichia coli expressing NDM-1 assessed as decrease in meropenem MIC at 4 mg/L incubated for 18 to 20 hrs by broth microdilution method; format: functional; settings: time 18-20 hrs
[8] = Inhibition of NDM-1 (unknown origin) using cefuroxime sodium as substrate incubated for 5 mins by UV-1800 spectrophotometric analysis; set-up: species or system Homo sapiens
[9] = tested on: L929; assay: Cytotoxicity against mouse L929 cells at 250 uM incubated for 48 hrs by MTT assay relative to control; format: toxicity, cell-based; settings: l929, 48 h
[10] = tested on: Escherichia coli; assay: Antibacterial activity against Escherichia coli measured after 18 hrs; format: functional
[11] = Inhibition of NDM-1 (unknown origin) measured after 10 mins; set-up: species or system Homo sapiens
[12] = tested on: Klebsiella pneumoniae; assay: Synergistic antibacterial activity against carbapenem-resistant Klebsiella pneumoniae expressing NDM-1 measured after 18 hrs in the presence of meropenem; format: functional
[13] = Binding affinity to NDM-1 (unknown origin) assessed as inhibition constant using meropenem as substrate incubated for 10 mins; set-up: species or system Homo sapiens
[14] = Inhibition of NDM-1 (unknown origin) using meropenem as substrate incubated for 10 mins; set-up: species or system Homo sapiens
[15] = Binding affinity to NDM-1 (unknown origin) assessed as inhibition constant using cefazolin as substrate incubated for 5 mins measured for every 1 sec by isothermal titration calorimetric analysis; set-up: species or system Homo sapiens
[16] = Binding affinity to NDM-1 (unknown origin) assessed as kinetic constant using cefazolin as substrate preincubated for 60 sec followed by cefazolin addition after 60 sec by isothermal titration calorimetric assay; set-up: species or system Homo sapiens
[17] = species: Homo sapiens; assay: Inhibition of NDM-1 (unknown origin) at 16 uM using cefazolin as substrate incubated for 12 hrs by Agilent UV8453 UV-Vis spectrometric analysis relative to control
[18] = Inhibition of NDM-1 (unknown origin) using cefazolin as substrate incubated for 12 hrs by Agilent UV8453 UV-Vis spectrometric analysis; set-up: species or system Homo sapiens
[19] = tested on: Citrobacter freundii; assay: Antibacterial activity against Citrobacter freundii expressing NDM-1 assessed as decrease in meropenem MIC at 8 mg/L incubated for 18 to 20 hrs by broth microdilution method; format: functional; settings: time 18-20 hrs
[20] = tested on: Citrobacter freundii; assay: Antibacterial activity against Citrobacter freundii expressing NDM-1 assessed as decrease in meropenem MIC at 4 mg/L incubated for 18 to 20 hrs by broth microdilution method; format: functional; settings: time 18-20 hrs
[21] = Inhibition of NDM-1 (unknown origin) by HPLC analysis; set-up: species or system Homo sapiens
[22] = Inhibition of NDM-1 (unknown origin) expressed in Escherichia coli Zc-YN3

## COC(=O)C[C@H]1[C@]2(C)C3=C(C)[C@H](c4ccoc4)C[C@H]3O[C@@H]2[C@@H]2OC(=O)[C@]3(C)C=CC(=O)[C@@]1(C)[C@@H]23 [NIMBOLIDE]
[1]
  IC50: 1.34 µM

## O=C(O)CN(CCN(CC(=O)O)CC(=O)O)CC(=O)O [EDETIC ACID]
[1]
  IC50: 1.6 µM

## COc1cc(/C=C/c2ccc(O)cc2)cc(OC)c1 [PTEROSTILBENE]
[2]
  IC50: 15.37 µg/mL (≈ 60 µM)
[3]
  bioavailability: 80%

## CC1(C)S[C@@H]2[C@H](NC(=O)[C@H](N)c3ccccc3)C(=O)N2[C@H]1C(=O)O [AMPICILLIN]
[4]
  MIC: 32 µM

## N[C@@H](CN[C@@H](CN[C@@H](CC(=O)O)C(=O)O)C(=O)O)C(=O)O
[5]
  IC50: 4 µM

## CC1(C)S[C@H]2CS[C@H](CS)N2[C@@H]1C(=O)O
[6]
  IC50: 200 µM

## O=C(O)CN1CCN(CC(=O)O)CCN(CC(=O)O)CC1
[7]
  MIC: 0.125 µg/mL

## COc1ccc([C@@H]2CC(=O)c3c(O)cc(O[C@@H]4O[C@H](CO[C@@H]5O[C@@H](C)[C@H](O)[C@@H](O)[C@H]5O)[C@@H](O)[C@H](O)[C@H]4O)cc3O2)cc1O [HESPERIDIN]
[8]
  IC50: 3.35 µM

## O=C(NNC(=S)[S][K])c1ccccc1O
[9]
  Activity: > 80%

## O=C(O)[C@@H]1SC[C@H]2CS[C@H](CS)N21
[6]
  IC50: 23 µM

## O=C(O)[C@H]1SC[C@@H]2CS[C@@H](CS)N21
[6]
  IC50: 109 µM

## CC(C(=O)NC(Cc1ccccc1)C(=O)N(C)C(C)C(=O)NC(Cc1ccccc1)C(N)=O)N(C)C(=O)CCC(C(=O)O)N1CCN(CC(=O)O)CCN(CC(=O)O)CC1 (configuration not stated) ({NODAGA}-[NMeA]F[NMeA]F-NH2; configuration not given here)
[7]
  MIC: 0.125 µg/mL

## O=C1N(Cc2cccc3ccccc23)c2ccccc2C12NN=C(c1ccccc1)S2 (configuration not stated)
[10]
  MIC: 4 µM (≈ 1.69 µg/mL)
[11]
  IC50: 6.6 µM
[12]
  MIC: 2 µM

## CCCCCCCCCCCC1=C(O)C(=O)C=C(O)C1=O [EMBELIN]
[13]
  Ki: 0.19 µM
[14]
  IC50: 2.1 µM

## O=C(NNC(=S)S)c1ccccc1O
[15]
  Ki: 0.29 µM

## O=C(O)C(=O)CBr [BROMOPYRUVATE]
[16]
  Ki: 3.8 µM
[17]
  inhibition: > 90%
[18]
  IC50: 2.57 µM

## c1ccc(CN(CCN(Cc2ccccn2)Cc2ccccn2)Cc2ccccn2)nc1
[19]
  MIC: 0.06 µg/mL
[20]
  MIC: 0.5 µg/mL

## CC1(C)S[C@@H]2CS[C@@H](CS)N2[C@H]1C(=O)O
[6]
  IC50: 180 µM

## O=C(O)[C@H]1O[C@@H](Oc2cc3oc(-c4ccccc4)cc(=O)c3c(O)c2O)[C@H](O)[C@@H](O)[C@@H]1O [BAICALIN]
[21]
  IC50: 3.89 µM

## C=CCc1ccc(O)c(-c2cc(CC=C)ccc2O)c1 [MAGNOLOL]
[22]
  IC50: 6.47 µM
